Source: a compilation of properties of binary mixtures (doi:10.1021/acs.jced.0c00987)

Assay: xn = mol fraction of the nth substance listed
Details: 100 kPa

CCOS(=O)(=O)[O-].CC[n+]1ccn(C)c1 + OCC(O)CO
Details	electrical conductivity, 298.15 K [S/m]	electrical conductivity, 313.15 K [S/m]	viscosity, 293.15 K [mPa·s]	viscosity, 298.15 K [mPa·s]	viscosity, 303.15 K [mPa·s]	viscosity, 313.15 K [mPa·s]
x1 = 0.002	0.0004	–	1381.9	892	590	–
x1 = 0.004	0.0006	–	1352.7	873	578	–
x1 = 0.012	0.002	0.0063	1239	804	535	255.6
x2 = 0	–	–	123.5	95.9	75.7	49.7
x2 = 0.123	–	0.72	114.1	–	70.7	46.7
x2 = 0.264	0.386	0.71	104.7	81.9	–	43.1
x2 = 0.39	0.365	0.67	101.5	79.1	62.6	41.2
x2 = 0.5	0.313	0.6	–	81.2	–	41.2
x2 = 0.601	–	0.496	121	–	70.4	44.1
x2 = 0.703	0.173	0.371	162.3	119.2	89.3	53.3
x2 = 0.794	0.089	0.209	248.6	176.4	128	72.1
x2 = 0.901	0.026	0.071	533	360	249.8	129.3
x2 = 0.958	0.0075	–	922	604	406	–
x2 = 0.98	0.0033	0.0102	1138.7	742	–	237.9

OCCN(CCO)CCO + CCOS(=O)(=O)[O-].CC[n+]1ccn(C)c1
Details	electrical conductivity, 298.15 K [S/m]	electrical conductivity, 313.15 K [S/m]	viscosity, 293.15 K [mPa·s]	viscosity, 298.15 K [mPa·s]	viscosity, 303.15 K [mPa·s]	viscosity, 313.15 K [mPa·s]
x1 = 0.153	0.356	–	–	97.8	77.1	–
x1 = 0.285	0.284	0.53	121.9	94.1	74	48.1
x1 = 0.52	0.173	0.349	137.4	103.5	79.5	49.8
x1 = 0.617	0.126	0.266	–	117.8	–	54.3
x1 = 0.703	0.085	0.189	209.4	151.8	112.4	66
x1 = 0.787	–	0.108	286.6	–	146.5	82.5
x1 = 0.866	0.0219	0.055	416	287.3	–	110.1
x1 = 0.929	–	0.0234	583	–	–	143.5
x1 = 0.967	–	0.0103	–	–	–	167.7
x2 = 0.003	0.0004	0.0012	871	579	394	197.1
x2 = 0.006	0.0008	0.0021	857	570	–	195.3
x2 = 0.019	0.0021	0.0058	792	528	361	182.4

CC[n+]1ccn(C)c1.O=S(=O)([O-])C(F)(F)F + OCCO
Details	electrical conductivity, 298.15 K [S/m]	electrical conductivity, 313.15 K [S/m]	viscosity, 293.15 K [mPa·s]	viscosity, 298.15 K [mPa·s]	viscosity, 303.15 K [mPa·s]	viscosity, 313.15 K [mPa·s]
x1 = 0.001	–	0.0144	20.75	–	13.8	9.535
x1 = 0.002	0.0193	0.0335	20.6	16.7	–	9.46
x1 = 0.007	0.054	0.093	–	16.5	13.5	9.39
x1 = 0.013	0.082	0.137	20.1	16.3	–	9.28
x2 = 0.2	1.21	1.83	32.8	27.6	–	17.3
x2 = 0.413	1.44	2.17	21.9	18.6	15.9	11.9
x2 = 0.497	–	–	19.4	16.4	14	–
x2 = 0.498	1.51	2.28	–	–	–	–
x2 = 0.586	1.41	2.12	–	–	–	–
x2 = 0.587	–	–	17.6	14.8	12.7	9.5
x2 = 0.697	1.25	1.91	15.8	13.3	11.3	8.39
x2 = 0.808	0.95	–	15.7	13	11	–
x2 = 0.863	0.74	1.2	15.6	12.9	10.1	7.81
x2 = 0.907	0.52	0.87	17.1	14.1	11.7	8.32
x2 = 0.944	0.331	0.56	18.3	15	12.4	8.71
x2 = 0.974	0.161	0.276	–	15.9	13.1	9.1

CC[n+]1ccn(C)c1.O=S(=O)([O-])C(F)(F)F + OCC(O)CO
Details	electrical conductivity, 298.15 K [S/m]	electrical conductivity, 313.15 K [S/m]	viscosity, 293.15 K [mPa·s]	viscosity, 298.15 K [mPa·s]	viscosity, 303.15 K [mPa·s]	viscosity, 313.15 K [mPa·s]
x1 = 0.002	0.0003	0.0008	–	887	588	280.1
x1 = 0.004	0.0006	0.0018	1333.2	862	572	272.9
x1 = 0.011	0.0014	0.0044	1257.8	815	543	259.2
x1 = 0.018	0.0025	–	1168.4	760	506	–
x2 = 0.199	0.85	1.35	–	40.1	33.2	23.6
x2 = 0.299	0.77	–	50.2	40.7	33.4	–
x2 = 0.401	–	1.16	57.2	–	36.6	24.9
x2 = 0.499	0.492	0.89	70.2	54.4	42.9	28
x2 = 0.605	0.316	0.6	–	73.4	56	34.7
x2 = 0.698	0.198	0.416	–	106.2	78.8	46.3
x2 = 0.805	0.089	0.21	261.5	182.8	130.6	71.6
x2 = 0.899	0.0255	0.066	545	366	251.6	128.5
x2 = 0.919	0.0172	0.0486	646	430	293.3	147.6
x2 = 0.962	0.0056	0.0174	–	633	–	206.8

CCOS(=O)(=O)[O-].CC[n+]1ccn(C)c1 + OCCN(CCO)CCO
x2 = 0
Details	viscosity [mPa·s]
293.15 K	123.5
298.15 K	95.9
313.15 K	49.7

OCCO + CCOS(=O)(=O)[O-].CC[n+]1ccn(C)c1
x1 = 1
Details	viscosity [mPa·s]
293.15 K	20.8
313.15 K	9.52

OCCN(CCO)CCO + CC[n+]1ccn(C)c1.O=S(=O)([O-])C(F)(F)F
Details	electrical conductivity, 298.15 K [S/m]	electrical conductivity, 313.15 K [S/m]	viscosity, 293.15 K [mPa·s]	viscosity, 298.15 K [mPa·s]	viscosity, 303.15 K [mPa·s]	viscosity, 313.15 K [mPa·s]
x1 = 0.084	0.82	1.29	–	43.4	–	25.7
x1 = 0.167	0.72	–	55.7	45.1	–	–
x1 = 0.305	0.53	0.92	66.8	52.5	42	28.2
x1 = 0.426	–	0.63	86.2	–	51	32.8
x1 = 0.539	–	0.463	118.7	–	66.2	40.7
x1 = 0.641	0.137	0.296	165	118.4	–	50.9
x1 = 0.723	0.079	–	233.1	163.2	117.4	–
x1 = 0.802	0.041	0.102	336	228.6	160.6	86.3
x1 = 0.875	–	0.05	477	–	220.7	114.8
x1 = 0.94	0.0067	0.019	678	449	306.2	155
x1 = 0.969	0.0032	0.0092	793	523	355	177.4
x2 = 0.003	0.0004	0.0012	913	599	405	200.7
x2 = 0.006	0.0007	–	902	591	–	–
x2 = 0.017	0.0019	0.0054	848	557	377	188

OCCO + CC[n+]1ccn(C)c1.O=S(=O)([O-])C(F)(F)F
x1 = 1
Details	viscosity [mPa·s]
293.15 K	20.8
298.15 K	16.8
303.15 K	13.8
313.15 K	9.52

CCOS(=O)(=O)[O-].CC[n+]1ccn(C)c1 + OCCO
Details	electrical conductivity, 298.15 K [S/m]	electrical conductivity, 313.15 K [S/m]	viscosity, 293.15 K [mPa·s]	viscosity, 298.15 K [mPa·s]	viscosity, 303.15 K [mPa·s]	viscosity, 313.15 K [mPa·s]
x1 = 0.001	–	0.0161	–	–	13.5	9.345
x1 = 0.003	0.0213	–	20.6	16.7	–	–
x1 = 0.008	0.057	–	20.6	16.7	13.7	–
x1 = 0.014	0.096	0.162	20.3	16.5	13.5	9.4
x2 = 0	–	–	123.5	–	75.7	49.7
x2 = 0.304	0.68	1.13	54.6	44.5	36.7	25.1
x2 = 0.406	0.79	–	–	34.4	28.7	–
x2 = 0.506	0.86	1.36	32.3	26.9	22.7	16.6
x2 = 0.597	–	1.48	25.8	–	18.3	13.5
x2 = 0.7	0.97	1.51	20.9	17.6	14.9	11
x2 = 0.792	0.87	1.38	18.4	15.4	–	9.59
x2 = 0.851	–	1.16	17.8	–	12.5	9.08
x2 = 0.899	0.53	0.86	18	14.9	12.4	8.92
x2 = 0.938	0.36	–	18.6	15.3	12.7	–
x2 = 0.972	0.178	0.299	19.7	16.1	13.2	9.28
